These results are taken from patent US20100331384A1, “GUANIDINE BASED COMPOUNDS” (UNIVERSIDAD DEL PAIS VASCO/EUSKAL HERRIKO UNIBERTSITATEA, priority 2007, published 2010).

The target of test [1] is α2-ARs. The note with it: starred compounds, affinity reported in reference 9 by the same group; cited from earlier work.
In test [2] the target is T1, α2-ARs (Homo sapiens, UniProt P08913).
T1 construct: other: human brain tissue in vitro; other: stimulation of [35S]GTPγS b
Description: [35S]GTPγS binding functional assay, compounds alone. In kind it is biochemical. The note with it: for agonistic or antagonistic properties in [35S]GTPγS experiments: human brain PFC; for stimulation of [35S]GTPγS binding by the compound on its own: human brain PFC membranes; for Emax: read-out: Emax (%), percentage efficacy relative to UK14304. On the procedure:
The [^35S]GTPγs binding assay constitutes a functional measure of the interaction of the receptor and the G-protein and is a useful tool to distinguish between agonists (increasing the nucleotide binding), inverse agonists (decreasing the nucleotide binding), and neutral antagonists (not affecting the nucleotide binding) of GPCRs.^20 Experiments were performed in low-affinity receptor conditions for agonists (presence of guanine nucleotides and sodium in the medium), and therefore, typical potency values are two-three logarithmic units lower than affinity values obtained in radioligand receptor binding experiments.^20
(§1) Preparation of membranes. Neural membranes (P2 fractions) were prepared from the PFC of human brains obtained at autopsy in the Instituto Vasco de Medicina Legal, Bilbao, Spain. Postmortem human brain samples of each subject (˜1 g) were homogenized using a Teflon-glass grinder (10 up-and-down strokes at 1500 rpm) in 30 volumes of homogenization buffer (1 mM MgCl2, and 5 mM Tris-HCl, pH 7.4) supplemented with 0.25 M sucrose. The crude homogenate was centrifuged for 5 min at 1000×g ([…]) and the supernatant was centrifuged again for 10 min at 40000×g (4° C.). The resultant pellet was washed twice in 20 volumes of homogenization buffer and recentrifuged in similar conditions. Aliquots of 1 mg protein were stored at −70° C. until assay.
[^35S]GTPγs binding assays. The incubation buffer for measuring [^35S]GTPγs binding to brain membranes contained, in a total volume of 500 μL, 1 mM EGTA, 3 mM MgCl2, 100 mM NaCl, […], 50 mM Tris-HCl at pH 7.4 and 0.5 nM [^35S]GTPγs. Proteins aliquots were thawed and re-suspended in the same buffer. The incubation was started by addition of the membrane suspension (40 μg of membrane proteins) to the previous mixture and was performed at 30° C. for 120 min with shaking. In order to evaluate the influence of the compounds on [^35S]GTPγs binding, 8 concentrations (10^−10 to 10^−3M) of the different compounds were added to the assay. Incubations were terminated by adding 3 mL of ice-cold re-suspension buffer followed by rapid filtration through Whatman GF/C filters pre-soaked in the same buffer. The filters were rinsed twice with 3 mL of ice-cold re-suspension buffer, transferred to vials containing 5 mL of OptiPhase HiSafe II cocktail (Wallac, UK) and the radioactivity trapped was determined by liquid scintillation spectrometry (Packard 2200CA). […] Non-specific binding of the radioligand was defined as the remaining [^35S]GTPγs binding in the presence of 10 μM unlabelled GTPγs.
For orientation: GTPγS is a poorly hydrolysed GTP analogue; its binding reports G protein activation.

In test [3] the target is T1, α2-ARs. Description: [3H]RX821002 competition binding assay in human brain PFC membranes. The note with it: human brain tissue in vitro.
Test [4] concerns the target α2-ARs. The test is described as above. Conditions: 31a vs 10b, 31b vs 17b. The method, then:
as §1
[^3H]RX821002 binding assays. […] Incubations were terminated by diluting the samples with 5 ml of ice-cold Tris incubation buffer (4° C.). Membrane bound [^3H]RX821002 was separated by vacuum filtration through Whatman GF/C glass fibre filters. Then, the filters were rinsed twice with 5 ml of incubation buffer and transferred to minivials containing 3 ml of OptiPhase “HiSafe” II cocktail and counted for radioactivity by liquid scintillation spectrometry. Specific binding was determined and plotted as a function of the compound concentration. Non-specific binding was determined in the presence of adrenaline (10^−5 M).
Analysis of binding data. Analysis of competition experiments to obtain the inhibition constant (Ki) were performed by nonlinear regression using the GraphPad Prism program. All experiments were analysed assuming a one-site model of radioligand binding. Ki values were normalized to pKi values.

Test [5] deals with α2-ARs. Conditions: previously described, reference 9; cited from earlier work.
In test [6] the test system is extracellular NA levels in the PFC. Put plainly: In vivo microdialysis in the PFC, extracellular NA. More on the design: species or system male Sprague Dawley rats. The note with it: local administration by reverse dialysis 1-100 μM in PFC, percentage of basal values. The text has this: Intracerebral microdialysis is a neurochemical technique that has been applied extensively in pharmacological studies aimed at investigating the effect of different drugs on brain neurotransmission. This technique allows one to collect a representative concentration of different neurotransmitters of the area where the probe is implanted while the animals are awake and freely moving.^21
Most antidepressant drugs are able to increase NA extracellular concentrations in different brain areas as the PFC, an area implicated in depression disease. Considering that α2-ARs exert a tonic inhibitory action on NA release from the noradrenergic terminals we assessed the ability of these two new compounds to increase NA extracellular concentration in this area. First, we tested the drugs when administered locally in order to confirm their antagonistic activity over α2-ARs in vivo.
A second step was to study the effect of these compounds increasing NA extracellular concentrations when administered systemically.
In Vivo Microdialysis assays. The experiments were carried out in male Sprague Dawley rats weighing between 250 g and 300 g. At the beginning of the experiments, animals were anaesthetized with chloral hydrate (400 mg/kg i.p.) and a microdialysis probe was implanted by stereotaxic surgery into prefrontal cortex (PFC) brain area. The coordinates selected for the PFC were as follows: AP (anterior to bregma) +2.8 mm, L (lateral from the mid-sagittal suture) +1 mm, DV (ventral from the dura surface) −5 mm.^22 After 24 hours for animal recovery, perfusion fluid (artificial cerebrospinal fluid) is pumped through the probe at a flow rate of 1 μl/min. In the semipermeable membrane, that is the critical side of the probe and is placed on the selected area, molecules flow into and out the cannulae by diffusion. Therefore, microdialysis technique allows local administration of substrates dissolved in the perfusion fluids.
When drugs were locally administered, they were dissolved in a CSF and applied during 70 min via dialysis probe implanted in the PFC in increasing concentrations of 1, 10 and 100 μM. The compounds systemically administered were dissolved in saline and injected intraperitoneally.
Samples, collected with the microdialysis procedure (every 35 min), were analyzed by HPLC with electrochemical detection. NA concentrations were monitorizated by an amperometric detector (Hewlett-Packard model 1049A) at an oxidizing potential of +650 mV. The movil phase (12 mM citric acid, 1 mM EDTA, 0.7 mM octylsodio sulfate, pH 5 and 10% methanol) was filtered, degassed (Hewlett-Packard model 1100 degasser) and delivered at a flow rate of 0.2 ml/min by a Hewlett-Packard model 1100 pump. Stationary phase was a column of 150×2.1 mm (Thermo Electron Corporation, U.S.A.). Samples (injection volume 37 μl) were injected and NA analized in a run time of 10 min. Solution of standard noradrenaline was injected every working day to create a new calibration table.
The mean values of the first three samples before substrate administration were considered as 100% basal value. All measures of extracellular NA concentrations are expressed as percentage of the baseline value±s.e.mean. One way analysis of variance (ANOVA) for control group or two way ANOVA between control and each treated group was assessed for statistical analysis. After the experiments, rats were sacrificed with an overdose of chloral hydrate and the brains were dissected to check the correct implantation of the probe.

Entries after “also recorded” stand apart in the source; their conditions may differ.

T1 sequence (P08913 whole entry): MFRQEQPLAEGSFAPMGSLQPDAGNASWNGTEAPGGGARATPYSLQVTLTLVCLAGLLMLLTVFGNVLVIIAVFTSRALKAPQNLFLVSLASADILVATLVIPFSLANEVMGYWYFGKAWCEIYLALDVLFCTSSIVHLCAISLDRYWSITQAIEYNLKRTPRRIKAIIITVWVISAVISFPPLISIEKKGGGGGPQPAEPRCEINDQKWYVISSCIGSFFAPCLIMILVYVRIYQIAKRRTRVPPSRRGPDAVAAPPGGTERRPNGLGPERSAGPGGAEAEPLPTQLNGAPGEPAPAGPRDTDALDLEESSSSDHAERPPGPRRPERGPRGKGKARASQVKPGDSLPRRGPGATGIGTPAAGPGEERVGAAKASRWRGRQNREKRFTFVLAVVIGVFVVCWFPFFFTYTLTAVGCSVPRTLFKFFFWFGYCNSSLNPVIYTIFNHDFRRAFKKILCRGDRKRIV

For `N=C(N)Nc1ccc(Oc2ccccc2)cc1` [Compound 26b], the “affinity values (pKi) for the α2-ARs” value on α2-ARs [1] was 6.05.
On to `COc1ccc(NC(=N)N)cc1` [Compound 28b], for which the “affinity values (pKi) for the α2-ARs” value at α2-ARs [1] is recorded as 6.39.
As usually defined, the Emax is the maximal effect, on the per cent scale that the assay sets. `Cc1ccc(NC2=NCCN2)cc1C` [Compound 8b, 1-(2-imidazolidinylimino)-3,4-dimethylbenzene]: at α2-ARs [2], the “agonistic or antagonistic properties in [35S]GTPγS experiments” value (shortened to “agonistic or antagonistic properties”) is given as “agonistic properties”, the “stimulation of [35S]GTPγS binding by the compound on its own” value (“stimulation of [35S]GTPγS binding” below) is “stimulated binding” and the Emax was 89%. In addition, the “affinity towards the α2-ARs compared with references” value at α2-ARs [3] is recorded as “within the range of those of Idazoxan and/or Clonidine”.
Turning to `CSc1ccc(NC2=NCCN2)cc1` [Compound 29a], the “affinity values (pKi) for the α2-ARs” value on α2-ARs [1] was 7.07.
Turning to `CSc1ccc(NC(=N)N)cc1` [Compound 29b], the “affinity values (pKi) for the α2-ARs” value on α2-ARs [1] is listed as 6.40.
`c1cc2c(cc1NC1=NCCN1)Cc1ccc(NC3=NCCN3)cc1C2` [Compound 18b, 2,6-di(2-imidazolidinylimino)-9,10-dihydroanthracene]: at α2-ARs [2], the “agonistic or antagonistic properties” value is recorded as “agonistic properties” and the “stimulation of [35S]GTPγS binding” value is on record as “did not stimulate binding”. Also, the “affinity towards the α2-ARs compared with references” value at α2-ARs [3] is reported as “within the range of those of Idazoxan and/or Clonidine”.
Turning to `Cc1ccc(NC2=NCCN2)cc1` [Compound 6b, 1-(2-imidazolidinylimino)-4-methylbenzene], on α2-ARs [2], the “agonistic or antagonistic properties” value is given as “agonistic properties”, the “stimulation of [35S]GTPγS binding” value is reported as “stimulated binding” and the Emax stood at 97%. The “affinity towards the α2-ARs compared with references” value on α2-ARs [3] is “within the range of those of Idazoxan and/or Clonidine”.
For `c1ccc(Oc2ccc(NC3=NCCN3)cc2)cc1` [Compound 26a], the “affinity values (pKi) for the α2-ARs” value on α2-ARs [1] is recorded as 6.58.
For `c1cc2c(cc1NC1=NCCN1)CCCC2` [Compound 10b, imidazolidin-2-ylidene-(5,6,7,8-tetrahydro-naphthalen-2-yl)-amine], at α2-ARs [2], the “agonistic or antagonistic properties” value is “agonistic properties”, the “stimulation of [35S]GTPγS binding” value is “stimulated binding” and the Emax came to 100%. Further, the “affinity towards the α2-ARs compared with references” value at α2-ARs [3] is listed as “within the range of those of Idazoxan and/or Clonidine”.
For `COc1ccc(NC2=NCCN2)cc1` [Compound 28a], the “affinity values (pKi) for the α2-ARs” value at α2-ARs [1] is 7.77.
`N=C(N)Nc1ccc2c(c1)Cc1ccc(NC(=N)N)cc1C2` [Compound 21b, 2,6-diguanidino-9,10-dihydroanthracene]: on α2-ARs [2], the “agonistic or antagonistic properties” value is reported as “agonistic properties” and the “stimulation of [35S]GTPγS binding” value was “did not stimulate binding”. Moreover, on α2-ARs [3], the “affinity towards the α2-ARs compared with references” value is “within the range of those of Idazoxan and/or Clonidine”.
With `N=C(N)Nc1ccc(Sc2ccccc2)cc1` [Compound 27b], on α2-ARs [1], the “affinity values (pKi) for the α2-ARs” value is 6.30.
With `N=C(N)Nc1ccc(N)cc1` [Compound 30b], the “affinity values (pKi) for the α2-ARs” value on α2-ARs [1] is on record as 5.58.
`c1ccc(Nc2ccc(NC3=NCCN3)cc2)cc1` [Compound 25a]: on α2-ARs [1], the “affinity values (pKi) for the α2-ARs” value is 6.56.
Regarding `N=C(N)Nc1ccc2c(c1)OCCO2` [Compound 31b], the “pKi higher than methylene containing counterpart” value at α2-ARs [4] is on record as 1.10 logarithmic units. Moreover, the “affinity values (pKi) for the α2-ARs” value on α2-ARs [1] is given as 8.21. Moreover, the “agonist or antagonist nature at α2-ARs, previously reported” value in the test with α2-ARs [5] is reported as “agonist”.
As to `c1ccc2c(c1)OCC(C1=NCCN1)O2` (stereo not shown) [Idazoxan, reference compound], the “Emax of increase in extracellular NA levels” value in test [6] is reported as 235±42%.
On to `N=C(N)Nc1ccc2c(c1)OCO2` [Compound 3b], for which the “affinity values (pKi) for the α2-ARs” value on α2-ARs [1] was 6.40.
As for `c1ccc(Sc2ccc(NC3=NCCN3)cc2)cc1` [Compound 27a], the “affinity values (pKi) for the α2-ARs” value on α2-ARs [1] is listed as 6.62.
Take `N=C(N)Nc1ccc(Nc2ccccc2)cc1` [Compound 25b]: at α2-ARs [1], the “affinity values (pKi) for the α2-ARs” value is recorded as 6.83.
In the case of `c1cc2c(cc1NC1=NCCN1)OCO2` [Compound 3], the “affinity values (pKi) for the α2-ARs” value at α2-ARs [1] was 7.33. Besides, the “agonist or antagonist nature at α2-ARs, previously reported” value in the test with α2-ARs [5] is given as “α2-AR antagonists; also recorded: antagonist”.
On to `Nc1ccc(NC2=NCCN2)cc1` [Compound 30a], for which the “affinity values (pKi) for the α2-ARs” value on α2-ARs [1] is 6.92.
For `c1cc2c(cc1NC1=NCCN1)OCCO2` [Compound 31a], the “pKi higher than methylene containing counterpart” value on α2-ARs [4] is 0.52 logarithmic units. Moreover, the “affinity values (pKi) for the α2-ARs” value on α2-ARs [1] is 7.85.
In the case of `c1ccc(Cc2ccc(NC3=NCCN3)cc2)cc1` [Compound 4b, 1-(2-imidazolidinyliminio)-4-benzylbenzene], the maximum response (Emax) at α2-ARs [2] came to 111%.
